Measured values as given in patent publication US8546381B2, “Bridged heterocyclic compounds and methods of use” (Medivation Technologies, Inc., priority 2008, dated 2013).

Experiments:
[1] = test system: rat central imidazoline I2 receptor; assay: Central imidazoline I2 radioligand binding ([3H]Idazoxan); conditions: compound at 1 μM; inhibition of specific [3H]Idazoxan binding
Method: To evaluate in radioligand binding assays the activity of compounds of the invention, rat central imidazoline I2 receptor obtained from Wistar Rat cerebral cortex (Brown, C. M. et al., Br. J. Pharmacol. 99:803, 1990) in a modified Tris-HCl buffer (50 mM Tris-HCl buffer, pH 7.4, 0.5 mM EDTA) was used. Compounds of the invention were incubated with 2 nM [^3H]Idazoxan for 30 minutes at 25° C. Non-specific binding was estimated in the presence of 1 μM Idazoxan. Receptor proteins were filtered and washed, the filters were then counted to determine [^3H]Idazoxan specifically bound. Compounds were screened at 1 μM or lower, using 1% DMSO as vehicle. Compounds of the invention were tested in this biochemical assay and percent inhibition of specific binding was determined.

[2] = target: T1, rat adrenergic α1B receptor (Rattus norvegicus, UniProt P15823); assay: Adrenergic α1B radioligand binding ([3H]Prozosin); conditions: for inhibition at 1 µM: read-out: Adrenergic α1B, inhibition of ligand binding (1 μM)
T1 construct: obtained from Wistar Rat liver; from tissue; host or cells: Wistar rat liver
T1 sequence (P15823 1-515): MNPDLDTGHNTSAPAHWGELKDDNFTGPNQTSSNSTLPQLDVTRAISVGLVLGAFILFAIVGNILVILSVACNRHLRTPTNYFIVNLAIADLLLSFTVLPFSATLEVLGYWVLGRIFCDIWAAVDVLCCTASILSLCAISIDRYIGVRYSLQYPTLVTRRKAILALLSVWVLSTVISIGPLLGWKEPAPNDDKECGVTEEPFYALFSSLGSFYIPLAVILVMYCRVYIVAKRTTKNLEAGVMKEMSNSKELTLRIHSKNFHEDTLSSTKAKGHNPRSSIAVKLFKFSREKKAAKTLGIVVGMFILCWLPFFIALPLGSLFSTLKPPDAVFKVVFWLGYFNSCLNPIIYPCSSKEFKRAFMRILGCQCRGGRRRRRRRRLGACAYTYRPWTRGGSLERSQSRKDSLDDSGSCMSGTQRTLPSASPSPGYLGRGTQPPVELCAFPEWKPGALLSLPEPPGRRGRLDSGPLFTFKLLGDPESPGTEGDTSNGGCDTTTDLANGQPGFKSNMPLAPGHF
Method: To evaluate in radioligand binding assays the activity of compounds of the invention, rat adrenergic α1B receptor obtained from Wistar Rat liver (Garcia-S'ainz, J. A. et al., Biochem. Biophys. Res. Commun. 186:760, 1992; Michel A. D. et al., Br. J. Pharmacol. 98:883, 1989) in a modified Tris-HCl buffer (50 mM Tris-HCl buffer, pH 7.4, 0.5 mM EDTA) was used. Compounds of the invention were incubated with 0.25 nM [^3H]Prozosin for 60 minutes at 25° C. Non-specific binding was estimated in the presence of 10 μM phentolamine. Receptor proteins were filtered and washed, the filters were then counted to determine [^3H]Prozosin specifically bound. Compounds were screened at 1 μM or lower, using 1% DMSO as vehicle. Compounds of the invention were tested in this biochemical assay and percent inhibition of specific binding was determined.

[3] = target: T2, human recombinant serotonin (5-Hydroxytryptamine) 5-HT2A receptor (Homo sapiens, UniProt P28223); assay: Serotonin 5-HT2A radioligand binding ([3H]Ketanserin); conditions: read-out: Serotonin 5-HT2A, inhibition of ligand binding (1 μM)
T2 construct: expressed in transfected cells; host or cells: CHO-K1 cells
T2 sequence (P28223 whole entry): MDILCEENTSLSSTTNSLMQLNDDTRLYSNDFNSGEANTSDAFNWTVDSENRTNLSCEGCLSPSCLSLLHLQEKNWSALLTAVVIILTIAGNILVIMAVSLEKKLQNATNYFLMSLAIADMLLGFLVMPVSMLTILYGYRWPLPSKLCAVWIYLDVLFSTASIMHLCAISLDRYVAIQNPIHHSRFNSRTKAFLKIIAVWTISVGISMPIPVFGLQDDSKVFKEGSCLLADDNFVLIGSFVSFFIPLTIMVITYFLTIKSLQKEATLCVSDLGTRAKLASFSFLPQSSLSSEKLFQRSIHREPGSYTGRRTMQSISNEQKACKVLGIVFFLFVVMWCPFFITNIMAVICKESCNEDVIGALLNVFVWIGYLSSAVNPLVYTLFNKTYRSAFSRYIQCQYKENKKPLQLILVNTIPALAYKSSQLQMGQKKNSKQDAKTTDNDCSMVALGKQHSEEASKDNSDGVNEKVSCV
Method: To evaluate in radioligand binding assays the activity of compounds of the invention, human recombinant serotonin (5-Hydroxytryptamine) 5-HT2A receptor expressed in Chinese hamster ovary (CHO-K1) cells (Bonhaus, D. W. et al. Br. J. Pharmacol. 115:622, 1995; Saucier, C. and Albert, P. R., J. Neurochem. 68:1998, 1997) in a 50 mM Tris-HCl buffer, pH 7.4, was used. Compounds of the invention were incubated with 0.5 nM [^3H]Ketanserin for 60 minutes at 25° C. Non-specific binding was estimated in the presence of 1 μM Mianserin. Receptor proteins were filtered and washed, the filters were then counted to determine [^3H]Ketanserin specifically bound. Compounds were screened at 1 μM or lower, using 1% DMSO as vehicle. Biochemical assay results are presented as the percent inhibition of specific binding in Table 4.

[4] = target: T3, human recombinant serotonin (5-Hydroxytryptamine) 5-HT7 receptor (Homo sapiens, UniProt P34969); assay: Serotonin 5-HT7 radioligand binding ([3H]LSD); conditions: for inhibition at 1 µM: read-out: Serotonin 5-HT7, inhibition of ligand binding (1 μM)
T3 construct: expressed in transfected cells; host or cells: CHO cells
T3 sequence (P34969 whole entry): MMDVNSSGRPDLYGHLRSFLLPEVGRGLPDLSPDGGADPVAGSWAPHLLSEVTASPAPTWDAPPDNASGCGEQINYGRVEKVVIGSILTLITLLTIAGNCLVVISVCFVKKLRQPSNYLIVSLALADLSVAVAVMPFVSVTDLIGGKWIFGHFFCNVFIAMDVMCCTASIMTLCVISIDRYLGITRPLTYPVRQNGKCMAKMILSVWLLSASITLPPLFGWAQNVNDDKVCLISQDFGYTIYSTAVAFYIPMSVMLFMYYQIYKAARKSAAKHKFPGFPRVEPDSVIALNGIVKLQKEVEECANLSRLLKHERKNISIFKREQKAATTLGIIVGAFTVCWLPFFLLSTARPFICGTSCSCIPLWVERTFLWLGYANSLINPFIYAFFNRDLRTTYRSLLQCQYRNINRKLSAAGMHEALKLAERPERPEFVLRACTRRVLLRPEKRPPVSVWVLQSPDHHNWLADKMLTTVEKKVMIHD
Method: To evaluate in radioligand binding assays the activity of compounds of the invention, human recombinant serotonin (5-Hydroxytryptamine) 5-HT7 receptor expressed in Chinese hamster ovary (CHO) cells (Roth, B. L. et al., J. Pharmacol. Exp. Ther. 268:1403, 1994; Shen, Y. et al., J. Biol. Chem. 268:18200, 1993) in a modified Tris-HCl buffer (50 mM Tris-HCl, pH 7.4, 10 mM MgCl2, 0.5 mM EDTA) was used. Compounds of invention were incubated with 5.5 nM [^3H] Lysergic acid diethylamide (LSD) for 2 hours at 25° C. Non-specific binding was estimated in the presence of 10 μM Serotonin (5-HT). Receptor proteins were filtered and washed, the filters were then counted to determine [^3H]LSD specifically bound. Compounds were screened at 1 μM or lower, using 1% DMSO as vehicle. Biochemical assay results are presented as the percent inhibition of specific binding in Table 4.

[5] = target: T4, human recombinant dopamine D2L receptor (Homo sapiens, UniProt P14416); assay: Dopamine D2L radioligand binding ([3H]Spiperone); conditions: read-out: Dopamine (1 μM) D2L, inhibition of ligand binding
T4 construct: expressed in transfected cells; host or cells: CHO cells
T4 sequence (P14416 whole entry): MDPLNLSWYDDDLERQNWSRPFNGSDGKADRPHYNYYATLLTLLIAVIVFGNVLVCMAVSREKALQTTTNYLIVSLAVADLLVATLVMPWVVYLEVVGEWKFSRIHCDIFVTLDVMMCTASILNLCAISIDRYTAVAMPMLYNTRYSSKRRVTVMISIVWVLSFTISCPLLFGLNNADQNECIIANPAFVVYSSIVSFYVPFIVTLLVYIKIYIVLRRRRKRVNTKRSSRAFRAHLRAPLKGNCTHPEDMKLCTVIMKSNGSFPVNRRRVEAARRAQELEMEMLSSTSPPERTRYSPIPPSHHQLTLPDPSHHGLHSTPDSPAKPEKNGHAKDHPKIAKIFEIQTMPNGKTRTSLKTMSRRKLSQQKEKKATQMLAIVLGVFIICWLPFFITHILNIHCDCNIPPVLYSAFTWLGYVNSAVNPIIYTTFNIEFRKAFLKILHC
Method: To evaluate in radioligand binding assays the activity of compounds of the invention, human recombinant dopamine D2L receptor expressed in Chinese hamster ovary (CHO) cells (Grandy, D. K. et al. Proc. Natl. Acad. Sci. USA. 86:9762, 1989; Hayes, G. et al., Mol. Endocrinol. 6:920, 1992) in a modified Tris-HCl buffer (50 mM Tris-HCl, pH 7.4, 1.4 mM Ascorbic Acid, 0.001% BSA, 150 mM NaCl) was used. Compounds of the invention were incubated with 0.16 nM [^3H]Spiperone for 120 minutes at 25° C. Non-specific binding was estimated in the presence of 10 μM Haloperidol. Receptor proteins were filtered and washed, the filters were then counted to determine [^3H]Spiperone specifically bound. Compounds were screened at 1 μM or lower, using 1% DMSO as vehicle. Biochemical assay results are presented as the percent inhibition of specific binding in Table 3.

SMILES | Imidazoline I2 Central (1 μM), Percentage Inhibition [1] [%] | inhibition at 1 µM [3] [%] | inhibition at 1 µM [4] [%] | inhibition at 1 µM [5] [%] | also measured
Cc1ccc2c(c1)c1c(n2CCc2ccccc2)CC2CCC1N2C (stereo not drawn) [Compound 2] | 70 | 96 | 98 | – | inhibition at 0.03 µM ([2]; read-out: Adrenergic α1B, inhibition of ligand binding (0.03 μM)): 63%; inhibition at 0.3 µM ([2]; read-out: Adrenergic α1B, inhibition of ligand binding (0.3 μM)): 89%; inhibition at 1 µM [2]: 99%; inhibition at 0.003 µM ([4]; read-out: Serotonin 5-HT7, inhibition of ligand binding (3.0 nM)): 38%; inhibition at 0.03 µM ([4]; read-out: Serotonin 5-HT7, inhibition of ligand binding (0.03 μM)): 81%
CN1C2CCC1c1c(n(CCC(=O)N3CCCC3)c3ccc(Cl)cc13)C2 (stereo not drawn) [Compound 5] | 25 | – | – | 10 | –
CN1C2CCC1c1c(n(CCC(=O)N3CCOCC3)c3ccc(Cl)cc13)C2 (stereo not drawn) [Compound 13] | −7 | – | – | 13 | –
CN1C2CCC1c1c(n(CCc3ccc(Cl)cc3)c3ccc(F)cc13)C2 (stereo not drawn) [Compound 33] | 6 | – | – | 17 | –
CN1C2CCC1c1c(n(CCc3ccc(F)cc3)c3ccc(F)cc13)C2 (stereo not drawn) [Compound 35] | 33 | – | – | 67 | –
Cc1ccc2c(c1)c1c(n2CCc2ccccc2)CC2CCCC1N2C (stereo not drawn) [Compound 56] | 27 | 31 | 92 | – | inhibition at 1 µM [2]: 80%
CN1C2CCC1c1c(n(CCc3ccc(F)cc3)c3ccc(Cl)cc13)C2 (stereo not drawn) [Compound 57] | 8 | 79 | 94 | – | inhibition at 1 µM [2]: 87%
CN1C2CCC1c1c(n(CCc3ccc(Cl)cc3)c3ccc(Cl)cc13)C2 (stereo not drawn) [Compound 58] | 8 | 79 | 93 | – | inhibition at 1 µM [2]: 83%
CN1C2CCC1c1c(n(CC(=O)N3CCOCC3)c3ccc(Cl)cc13)C2 (stereo not drawn) [Compound 59, 2-(2-chloro-11-methyl-5,6,7,8,9,10-Hexahydro-7,10-iminocyclohept[b]indol-5-yl)-1-morpholinoethanone] | −8 | – | – | 6 | –
CN1C2CCC1c1c(n(CC(=O)N3CCCC3)c3ccc(Cl)cc13)C2 (stereo not drawn) [Compound 60] | 1 | – | – | 0 | –
Cc1ccc(CCn2c3c(c4cc(Cl)ccc42)C2CCC(C3)N2C)cc1 (stereo not drawn) [Compound 61] | 22 | – | – | 44 | –
Cc1ccc2c(c1)c1c(n2CCc2ccc(F)cc2)CC2CCC1N2C (stereo not drawn) [Compound 62] | 52 | – | – | 41 | –
CN1C2CCC1c1c(n(CC(=O)c3ccc(Cl)cc3)c3ccc(Cl)cc13)C2 (stereo not drawn) [Compound 111] | – | 94 | 78 | 6 | –
C/C(=C\n1c2c(c3cc(C)ccc31)C1CCC(C2)N1C)c1ccc(Cl)cc1 (stereo not drawn) [Compound 116] | – | 90 | 92 | -2 | –
C/C(=C\n1c2c(c3cc(Cl)ccc31)C1CCC(C2)N1C)c1ccc(F)cc1 (stereo not drawn) [Compound 123] | – | 97 | 97 | 80 | –
C/C(=C\n1c2c(c3cc(C)ccc31)C1CCC(C2)N1C)c1ccc(F)cc1 (stereo not drawn) [Compound 124] | – | 97 | 91 | 33 | –
C/C(=C\n1c2c(c3cc(Cl)ccc31)C1CCC(C2)N1C)c1ccc(Cl)cc1 (stereo not drawn) [Compound 125] | – | 101 | 95 | 5 | –
COc1ccc(/C(C)=C/n2c3c(c4cc(Cl)ccc42)C2CCC(C3)N2C)cc1F (stereo not drawn) [Compound 136] | – | 99 | 79 | 11 | –
CN1C2CCC1c1c(n(C#Cc3ccc(F)cc3)c3ccc(Cl)cc13)C2 (stereo not drawn) [Compound 138] | – | 98 | 91 | 42 | –
Cc1ccc(C#Cn2c3c(c4cc(Cl)ccc42)C2CCC(C3)N2C)cn1 (stereo not drawn) [Compound 139] | – | 88 | 97 | -4 | –
Cc1ccc2c(c1)c1c(n2C#Cc2ccc(F)cc2)CC2CCC1N2C (stereo not drawn) [Compound 141] | – | 93 | 48 | -4 | –
CN1C2CCC1c1c(n(C#Cc3ccc(Cl)cc3)c3ccc(Cl)cc13)C2 (stereo not drawn) [Compound 142] | – | 98 | 57 | 0 | –
COc1ccc(C(C)(O)Cn2c3c(c4cc(Cl)ccc42)C2CCC(C3)N2C)cc1F (stereo not drawn) [Compound 160] | – | 95 | 75 | 7 | –
COc1ccc(C(C)(O)Cn2c3c(c4cc(C)ccc42)C2CCC(C3)N2C)cc1F (stereo not drawn) [Compound 161] | – | 96 | 69 | 12 | –
Cc1ccc2c(c1)c1c(n2C(=O)Cc2ccc(Cl)cc2)CC2CCC1N2C (stereo not drawn) [Compound 162] | – | 92 | 43 | 2 | –
C/C(=C\n1c2c(c3cc(C)ccc31)C1CCC(C2)N1C)c1ccc(Cl)cc1Cl (stereo not drawn) [Compound 163] | – | 94 | 87 | -16 | –
